Data published in ChEMBL document CHEMBL6127036, “Chaperoning system: Intriguing target to modulate the expression of CFTR in cystic fibrosis” (Eur J Med Chem, 2024).

Tests used:
[1] = target: Cystic fibrosis transmembrane conductance regulator (Homo sapiens) (UniProt P13569); assay: Activation of human CFTR expressed in rat FRT cells at 30 uM relative to control; type: cell-based; conditions: filed as activator
[2] = Inhibition of HSP70 (unknown origin) expressed in human HeLa cells; type: cell-based
[3] = system: Cystic fibrosis transmembrane conductance regulator (Homo sapiens), P13569 [F508del]; assay: Inhibition of CFTR F508del mutant (unknown origin) in FRT cells; type: cell-based
Chain of Cystic fibrosis transmembrane conductance regulator (Homo sapiens), P13569 [F508del] (P13569 as listed by the source): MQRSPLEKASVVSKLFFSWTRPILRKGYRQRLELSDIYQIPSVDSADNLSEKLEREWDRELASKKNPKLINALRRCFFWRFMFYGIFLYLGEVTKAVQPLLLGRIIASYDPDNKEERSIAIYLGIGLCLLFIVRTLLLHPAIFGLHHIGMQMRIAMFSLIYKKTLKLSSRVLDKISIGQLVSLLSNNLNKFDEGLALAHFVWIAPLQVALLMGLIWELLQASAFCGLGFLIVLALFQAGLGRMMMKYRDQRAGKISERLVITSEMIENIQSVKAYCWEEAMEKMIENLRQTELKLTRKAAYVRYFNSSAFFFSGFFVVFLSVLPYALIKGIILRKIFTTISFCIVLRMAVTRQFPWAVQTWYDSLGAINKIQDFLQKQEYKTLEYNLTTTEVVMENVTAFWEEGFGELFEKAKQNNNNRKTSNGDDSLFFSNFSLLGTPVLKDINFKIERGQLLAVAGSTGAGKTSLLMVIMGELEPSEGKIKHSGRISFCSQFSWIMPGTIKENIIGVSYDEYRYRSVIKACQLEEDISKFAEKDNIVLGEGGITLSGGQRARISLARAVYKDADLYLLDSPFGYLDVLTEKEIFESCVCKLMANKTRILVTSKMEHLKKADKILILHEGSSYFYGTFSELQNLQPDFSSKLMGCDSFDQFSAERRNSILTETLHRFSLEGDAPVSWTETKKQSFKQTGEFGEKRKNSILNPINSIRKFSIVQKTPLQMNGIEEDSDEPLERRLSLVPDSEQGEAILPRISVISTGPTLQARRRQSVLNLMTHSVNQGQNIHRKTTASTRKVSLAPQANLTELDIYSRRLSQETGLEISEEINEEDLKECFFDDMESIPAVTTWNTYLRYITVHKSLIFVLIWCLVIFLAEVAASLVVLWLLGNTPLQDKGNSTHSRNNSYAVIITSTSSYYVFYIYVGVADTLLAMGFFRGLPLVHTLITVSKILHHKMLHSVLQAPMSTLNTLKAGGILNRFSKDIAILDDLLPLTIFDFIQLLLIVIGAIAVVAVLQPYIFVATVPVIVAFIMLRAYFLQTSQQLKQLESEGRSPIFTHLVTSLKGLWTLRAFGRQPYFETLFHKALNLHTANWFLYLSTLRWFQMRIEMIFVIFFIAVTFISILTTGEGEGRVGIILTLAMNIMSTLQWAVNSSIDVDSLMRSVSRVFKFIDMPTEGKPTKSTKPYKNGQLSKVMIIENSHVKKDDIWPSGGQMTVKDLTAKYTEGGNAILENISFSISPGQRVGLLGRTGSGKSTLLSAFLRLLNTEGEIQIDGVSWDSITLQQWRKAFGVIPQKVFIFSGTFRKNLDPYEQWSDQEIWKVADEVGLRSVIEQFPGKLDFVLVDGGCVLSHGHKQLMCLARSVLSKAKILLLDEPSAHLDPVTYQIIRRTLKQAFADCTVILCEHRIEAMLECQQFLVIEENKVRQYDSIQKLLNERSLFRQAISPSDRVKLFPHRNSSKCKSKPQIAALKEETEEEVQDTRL

[4] = target: Cystic fibrosis transmembrane conductance regulator (Homo sapiens) (UniProt P13569); assay: Inhibition of CFTR (unknown origin) at 10 uM relative to control

Chain of Cystic fibrosis transmembrane conductance regulator (Homo sapiens) (P13569 whole entry, looked up): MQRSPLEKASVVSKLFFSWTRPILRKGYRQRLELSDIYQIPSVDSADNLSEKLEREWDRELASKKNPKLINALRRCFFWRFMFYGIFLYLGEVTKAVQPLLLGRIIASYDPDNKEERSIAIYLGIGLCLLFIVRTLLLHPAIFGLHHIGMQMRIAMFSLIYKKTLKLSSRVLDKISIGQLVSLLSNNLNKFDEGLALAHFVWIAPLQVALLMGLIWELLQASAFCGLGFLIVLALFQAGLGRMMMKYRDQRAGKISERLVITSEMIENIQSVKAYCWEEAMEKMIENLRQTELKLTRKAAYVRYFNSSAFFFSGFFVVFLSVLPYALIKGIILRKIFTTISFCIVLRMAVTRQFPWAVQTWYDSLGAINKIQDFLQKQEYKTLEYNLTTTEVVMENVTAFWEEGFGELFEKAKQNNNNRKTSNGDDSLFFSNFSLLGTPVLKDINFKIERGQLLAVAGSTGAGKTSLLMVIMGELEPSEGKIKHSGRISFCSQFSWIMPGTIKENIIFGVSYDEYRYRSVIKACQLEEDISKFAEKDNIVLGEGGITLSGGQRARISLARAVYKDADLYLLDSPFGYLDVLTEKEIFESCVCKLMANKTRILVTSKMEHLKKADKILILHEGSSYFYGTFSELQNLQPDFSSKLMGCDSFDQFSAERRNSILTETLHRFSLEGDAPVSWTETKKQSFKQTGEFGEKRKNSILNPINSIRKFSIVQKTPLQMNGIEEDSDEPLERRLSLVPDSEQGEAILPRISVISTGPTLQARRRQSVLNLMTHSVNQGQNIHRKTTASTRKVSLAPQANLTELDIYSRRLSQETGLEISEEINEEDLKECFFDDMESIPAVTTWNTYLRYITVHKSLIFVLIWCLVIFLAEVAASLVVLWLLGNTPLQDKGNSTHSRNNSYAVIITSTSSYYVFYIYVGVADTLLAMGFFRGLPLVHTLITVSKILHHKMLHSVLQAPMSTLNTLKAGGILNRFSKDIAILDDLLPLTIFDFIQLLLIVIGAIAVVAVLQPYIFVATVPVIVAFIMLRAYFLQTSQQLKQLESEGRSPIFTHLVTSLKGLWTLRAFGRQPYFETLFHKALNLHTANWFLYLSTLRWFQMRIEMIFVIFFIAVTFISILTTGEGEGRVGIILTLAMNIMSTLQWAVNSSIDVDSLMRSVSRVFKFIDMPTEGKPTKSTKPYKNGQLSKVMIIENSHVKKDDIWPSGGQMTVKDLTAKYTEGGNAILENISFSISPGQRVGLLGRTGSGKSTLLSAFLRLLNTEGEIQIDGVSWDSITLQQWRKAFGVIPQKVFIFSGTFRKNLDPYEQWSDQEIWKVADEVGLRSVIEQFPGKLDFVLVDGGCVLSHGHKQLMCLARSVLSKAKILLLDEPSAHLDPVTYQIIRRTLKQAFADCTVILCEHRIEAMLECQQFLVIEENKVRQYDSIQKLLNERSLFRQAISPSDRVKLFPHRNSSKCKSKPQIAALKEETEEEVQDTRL

**Q.** With O=C1CCC[C@@H]2[C@H]3CCCN4CCC[C@@H](CN12)[C@@H]34 as the compound, how does the Activity [1] read?
**A.** The Activity was 53%.

**Q.** With N=C(N)NCCCCCCC(=O)N[C@@H](O)C(=O)NCCCCNCCCN as the compound, how does the EC50 [2] read?
**A.** Its EC50 is 5.4 µM.

**Q.** For N#CCc1nnc(-c2ccccn2)[nH]1, which fold change (FC) [3] is on record?
**A.** The fold change (FC) was 25.

**Q.** For N=C(N)NCCCC[C@H](O)CC(=O)N[C@@H](O)C(=O)NCCCCNCCCN, which EC50 [2] is on record?
**A.** The EC50 was 5.4 µM.

**Q.** With N#CC1=C(N)Oc2[nH]nc(-c3ccc(F)cc3)c2C1c1c[nH]nc1-c1ccc(F)cc1 (stereo unspecified) as the compound, how does the inhibition [4] read?
**A.** Its inhibition is 70%.

**Q.** For CCN(CC)c1ccc(N/N=C2\C(=O)C=Cc3ccccc32)cc1, which fold change (FC) [3] is on record?
**A.** Its fold change (FC) is 15.
